Measurements from patent publication US20260014144A1, “USE OF OV[…] PHARMACEUTICAL COMPOSITION THEREOF IN PREVENTION AND TREATMENT OF RENAL FIBROSIS” (ZHUJIANG HOSPITAL OF SOUTHERN MEDICAL UNIVERSITY, priority 2022, published 2026).
Structures can show the parent of a compound that is named as a salt.

Tests used:
[1] = system: unilateral ureteral obstruction (UUO) RF animal model; assay: Therapeutic effect of ACT004 in unilateral ureteral obstruction (UUO) renal fibrosis mouse model; type: in vivo; conditions: UUO mice
Protocol: (§1) Sixty 8-week-old C57 mice (SPF grade) were supplied by the Laboratory Animal Center of Zhujiang Hospital, Southern Medical University, Guangzhou. Before the experiment, the animals were acclimated to the indoor environment for 7 days at a room temperature of 18-22° C. and a relative humidity of 65%. All mice had free access to water and were fed with regular feed (protein content: 3.14 mg/g).
Method for constructing UUO model: Under anesthesia with intraperitoneal injection of tribromoethanol, the surgical area for abdominal midline incision was shaved and disinfected. After making the abdominal midline incision, the left ureter was located, and the upper segment of the ureter was isolated. A complete ureteral obstruction was induced by double ligation using 4-0 silk sutures (UUO group). For mice in the sham group, the ureter was similarly exposed and isolated, but no ligation was performed. Layered suturing of the abdominal incision was performed, followed by disinfection with iodophor. Mice subjected to UUO surgery were randomly divided into the following 5 groups: a UUO group, a UUO+low-dose ACT004 (12.5 mg/kg·d) group, a UUO+medium-dose ACT004 (25 mg/kg·d) group, a UUO+high-dose ACT004 (50 mg/kg·d) group, and a sham group, with 6 mice in each group. Starting from day 4 after the surgery, intragastric administration was performed. The sham group and the UUO groups were given an equal volume of normal saline as a control treatment. On day 11 after the surgery, the left kidney tissues were collected.
(§2) According to the results of the preliminary experiment, the medium dose of ACT004 for mice was 25 mg/kg·d. Therefore, low-dose (12.5 mg/kg·d), medium-dose (25 mg/kg·d) and high-dose (50 mg/kg·d) groups were set. ACT004 was prepared into a solution using normal saline, and intragastrically administered once daily starting on day 4 after the surgery for a duration of 1 week. Mice in the sham, UUO and IRI groups were subjected to intragastric administration with an equal amount of normal saline for a duration of 1 week.
(§3) After 1 week of intragastric administration, kidney tissues were collected as follows: Anesthesia was conducted using single intraperitoneal injection of tribromoethanol at a concentration of 200 mg/kg. Blood was collected by enucleation, and serum was separated and stored at −20° C. or −70° C. An abdominal incision was made, and sterile gauze was used to move aside abdominal organs. Cold PBS was perfused through the heart until the organs turned white. Kidney tissues were then collected. The entire left kidney was weighed, then bisected along the median sagittal plane, and washed thoroughly with PBS, and the capsule was removed. The tissue was then fixed in 10% neutral formaldehyde buffer for subsequent pathological examination.
(§4) 2.2.1.4.1 Renal pathology: Masson staining was used to observe the renal pathological structures and collagen fiber deposition.
(§5) 2.2.1.4.2 Protein level detection: Ras GTPase superfamily member RALB, EMT-related index a-SMA, and fibrosis phenotype-related indexes Fibronectin and Collagen I.

[2] = system: ischemia-reperfusion injury (IRI) RF animal model; assay: Therapeutic effect of ACT004 in ischemia-reperfusion injury (IRI) renal fibrosis mouse model; type: in vivo; conditions: IRI mice
Protocol: as §1
Method for constructing IRI model: Mice were anesthetized intraperitoneally with tribromoethanol. An abdominal midline incision or dorsal incision was made. The left renal vein was isolated, while the renal artery was clamped using an arterial clip. The mice were placed on a constant-temperature pad at 37.5° C. for 30 min, and the incision was covered with PBS-moistened gauze. After 30 min, the arterial clip was released, and the abdomen was closed after the recovery of renal congestion was observed. Mice subjected to IRI surgery were randomly divided into the following 5 groups: an IRI group, an IRI+low-dose ACT004 (12.5 mg/kg·d) group, an IRI+medium-dose ACT004 (25 mg/kg·d) group, an IRI+high-dose ACT004 (50 mg/kg·d) group, and a sham group, with 6 mice in each group. Starting from day 4 after the surgery, intragastric administration was performed. The sham group and the IRI groups were given an equal volume of normal saline as a control treatment. On day 10 after the surgery, the right kidney was removed, and on day 11 day after the surgery, the left kidney tissues were collected.
as §2, §3, §4, §5

[3] = system: renal tubular epithelial cells (NRK); assay: Effect of ACT004 on TGF-β1-induced EMT in renal tubular epithelial cells; type: cell-based, mouse
Protocol: The immortalized mouse-derived renal tubular epithelial cell line was provided by the Professor Nie Xiaoli's research team at the School of Traditional Chinese Medicine, Southern Medical University.
The addition of TGF-β1 was accompanied by the administration of different concentrations of ACT004 intervention (2.5 μM, 5 μM, and 10 μM). The cells were divided into the following 6 groups: a blank control group, a blank control+ACT004 (5 μM) group, a TGF-β1 model group, and groups for TGF-β1+ different concentrations of ACT004 intervention (2.5 μM, 5 μM, and 10 µM).
Protein level detection: Ras GTPase superfamily member RALB, EMT-related index α-SMA, and fibrosis phenotype-related indexes Fibronectin and Collagen I.

[4] = ACT004 12.5, 25, 50 mg/kg·d intragastric once daily from day 4 for 1 week, left kidney day 11, FIG. 1A
[5] = ACT004 intragastric 1 week, FIG. 1B
[6] = ACT004 intragastric 1 week, FIG. 1C, statistically significant (p<0.05)
[7] = ACT004 treatment groups, FIG. 3A

`C/C1=C\[C@H]2OC(=O)[C@H](CN3CCN(C)CC3)[C@@H]2CC[C@]2(C)O[C@H]2CCC2=C[C@H](C1)OC2=O` [ACT004, (1aS,4Z,7S,9E,10aS,13S,13aS,15aS)-9,15a-dimethyl-13-((4-methylpiperazin-1-yl)methyl)-1a,2,3,8,10a,13,13a,14,15,15a-decahydro-5H-4,7-(metheno) furo [2,3-f]oxireno [2,3-j][1]oxacyclopentadecine-5, 12 (7H)-dione fumarate] was tested, and the “Masson staining: renal interstitial expansion, extracellular matrix deposition, increased collagen fibers, inflammatory cell infiltration” value [1, 4] was “significantly reduced”, the “Immunohistochemical staining: expression of Fibronectin, Collagen I, and α-SMA in kidney tissue” value [1, 5] was “inhibitory effect” and the “Western blot: protein expression levels of Fibronectin, Collagen I, and α-SMA in kidney tissue” value [1, 6] was “inhibit the progression of RF”. The “Western blot: expression levels of p-Smad2, p-Smad3, p-Stat3, and p-NFκB in kidney tissues” value ([1]; ACT004 treatment groups, FIG. 2A) was “significantly reduced”, the “Western blot: expression level of RALB in kidney tissues” value [1, 7] was “significantly reduced” and the “Masson staining: renal interstitial expansion, extracellular matrix deposition, increased collagen fibers, inflammatory cell infiltration” value [2, 4] was “significantly reduced”. The “Immunohistochemical staining: expression of Fibronectin, Collagen I, and α-SMA in kidney tissue” value [2, 5] was “inhibitory effect”, the “Western blot: protein expression levels of Fibronectin, Collagen I, and α-SMA in kidney tissue” value [2, 6] was “inhibit the progression of RF” and the “Western blot: expression levels of p-Smad2, p-Smad3, p-Stat3, and p-NFκB in kidney tissues” value ([2]; ACT004 treatment groups, FIG. 2B) was “significantly reduced”. For the same compound, the “Western blot: expression level of RALB in kidney tissues” value [2, 7] was “significantly reduced”, the “Western blot: protein expression levels of Fibronectin, Collagen I, and α-SMA in TGFβ1-induced renal tubular epithelial cells” value ([3]; TGF-β1 10 ng/uL, 48 h, ACT004 2.5, 5, 10 μM, FIG. 1D, statistically significant (p<0.05)) was “inhibit the progression of RF” and the “Western blot: expression levels of p-Smad2, p-Smad3, p-Stat3, and p-NFκB in renal tubular epithelial cells induced by TGF-β1” value ([3]; different concentrations of ACT004, TGF-β1 induction for 1 h, FIG. 2C, statistically significant) was “reduced”.
